Legend:
rats = test: Rat model of peripheral mononeuropathy (Bennett Model), paw pressure test; format: in vivo; details: for % Variation of nociceptive threshold, injured paw, vs vehicle-treated group / Nociceptive threshold, injured paw: Bennett model; for Nociceptive threshold, injured paw: paw pressure, mean ± SEM
Method: A rat model of peripheral mononeuropathy (Bennett Model) was also used to evaluate the antihyperalgesic properties of the compounds.
Briefly, peripheral mononeuropathy was induced by loose ligation of the sciatic nerve in anaesthetized rats (pentobarbital; 45 mg/kg by intraperitoneal route). Fourteen days later, the nociceptive threshold was evaluated using a mechanical nociceptive stimulation (paw pressure test). An increasing pressure was applied onto the hindpaw of the animal until the nociceptive reaction (vocalization or paw withdrawal) was reached. The pain threshold (grams of contact pressure) was measured in hindpaws, both ipsilateral (injured side) and contralateral (non-injured side) to the site of sciatic ligation injury, at 10 minutes after the oral treatment for the compounds (1 mg/kg) and 60 minutes after dosing for morphine (60 mg/kg) and vehicle.
The results were expressed as a) the nociceptive threshold (mean±SEM) in grams of contact pressure for the injured paw and for the non-injured paw in the vehicle-treated group, and b) the percentage of variation of the nociceptive threshold calculated from the mean value of the vehicle-treated group.

mice = test: Hot plate test in mice (nociceptive reaction latency); format: in vivo; details: for Reaction Latency: hot plate 52°C, cutoff 30 seconds, mean ± SEM; for % variation of reaction latency: vs saline; for increase of nociceptive reaction latency vs vehicle controls: 1.0 mg/kg oral; for increase of nociceptive reaction latency vs vehicle-control: 60 mg/kg oral
Method: The compounds of Example 1 (administered as the dihydrochloride salt of a 3:1 mixture of 3-(3-pyridinyl)-6-azabicyclo[3.2.1]oct-2-ene and 3-(3-pyridinyl)-6-azabicyclo[3.2.1]oct-3-ene) were evaluated in this Example using a “hot plate” test in mice. Briefly, the compounds of Example 1 (0.03, 0.1 and 0.3 mg free base/kg) were subcutaneously administered five minutes before the hot plate test. Morphine (10 mg/kg) was subcutaneously administered at 15 minutes before the test. Each mouse was placed on a metallic hot plate maintained at 52±0.2° C. The nociceptive reaction latency, characterized by licking reflex of the forepaws or by jumping off the hot plate, was recorded. The cutoff was set to 30 seconds.
The time course of the analgesic effect of the compounds of Example 1 (0.1, 0.3 and 1.0 mg free base/kg) was also assessed using the hot plate test following oral administration. Each dose of the compounds was administered to separate groups of animals at either 5, 15, 30 or 60 minutes prior to hot plate assessment. Morphine (60 mg/kg) and vehicle were also orally administered to separate groups of animals either 5, 15, 30, or 60 minutes before the test. Each mouse was placed on a metallic hot plate maintained at 52±0.2° C. The nociceptive reaction latency, characterized by licking reflex of the forepaws or by jumping off the hot plate, was recorded. The cutoff was set to 30 seconds.

[1] = 1 mg/kg oral, 10 minutes after treatment
[2] = hot plate, 15 minutes after dosing
[3] = 60 mg/kg oral, 60 minutes after dosing

Molecule: 3-(3-pyridinyl)-6-azabicyclo[3.2.1]oct-2-ene dihydrochloride and 3-(3-pyridinyl)-6-azabicyclo[3.2.1]oct-3-ene dihydrochloride [Example 1]
- behavioral side-effects following dosing (rats; 1 mg/kg oral): No behavioral side-effects were observed
- % Variation of nociceptive threshold, injured paw, vs vehicle-treated group (rats; [1]): 20%
- Nociceptive threshold, injured paw (rats; [1]): 132.0 ± 9.0 g
- Reaction Latency (mice; 0.03 mg free base/kg subcutaneous, five minutes before the test): 19.3 ± 2.8 s
- Reaction Latency (mice; 0.1 mg free base/kg subcutaneous, five minutes before the test): 18.8 ± 2.2 s
- Reaction Latency (mice; 0.3 mg free base/kg subcutaneous, five minutes before the test): 28.2 ± 1.8 s
- % variation of reaction latency (mice; hot plate, 0.03 mg/kg subcutaneous, five minutes before the test): 72%
- % variation of reaction latency (mice; hot plate, 0.1 mg/kg subcutaneous, five minutes before the test): 68%
- % variation of reaction latency (mice; hot plate, 0.3 mg/kg subcutaneous, five minutes before the test): 152%
- increase of nociceptive reaction latency vs vehicle controls (mice; hot plate, 5 minutes after dosing): 82%
- increase of nociceptive reaction latency vs vehicle controls (mice; [2]): 97%
- effect on nociceptive threshold vs vehicle-treated group (mice; hot plate, lower oral doses (0.1 and 0.3 mg free base/kg), data not shown): failed to modify the nociceptive threshold

Molecule: C1=C(c2cccnc2)CC2CNCC1C2.Cl.Cl (stereo not drawn)
- melting point: 219 to 221 °C

Molecule: CN1CC[C@]23c4c5ccc(O)c4O[C@H]2[C@@H](O)C=C[C@H]3[C@H]1C5 [Morphine, reference compound]
- % Variation of nociceptive threshold, injured paw, vs vehicle-treated group (rats; [3]): 144%
- Nociceptive threshold, injured paw (rats; [3]): 268.0 ± 18.9 g
- Reaction Latency (mice; 10 mg/kg subcutaneous, 15 minutes before the test): 29.4 ± 0.5 s
- % variation of reaction latency (mice; hot plate, 10 mg/kg subcutaneous, 15 minutes before the test): 163%
- increase of nociceptive reaction latency vs vehicle-control (mice; [2]): 69%
- increase of nociceptive reaction latency vs vehicle-control (mice; hot plate, 30 minutes after dosing): 47%
- increase of nociceptive reaction latency vs vehicle-control (mice; hot plate, 60 minutes after dosing): 37%

Molecule: C1=C(c2cccnc2)C2CNCC1C2.Cl.Cl (stereo not drawn)
- melting point: 192 to 195 °C

Source: US7897611B2, “Pharmaceutical compositions and methods for relieving pain and treating central nervous system disorders” (Targacept, Inc., priority 2003, dated 2011)
